Experimental data reported in ChEMBL document CHEMBL4257082, “Nhe3-binding compounds and methods for inhibiting phosphate transport” (2016).
Active and inactive are the calls of the source. The rule behind the calls is not given here.

Columns and labels:
Rattus norvegicus [1] = test: In vivo inhibition of NHE3 in Sprague-Dawley rat assessed as inhibition of sodium absorption from intestinal lumen by measuring urinary sodium concentration at 10 mg/kg, po via gavage measured after 16 hrs relative to control; assay type: functional; parameters: scale not given: the % may be the effect or the level left
Rattus norvegicus [2] = test: In vivo inhibition of NHE3 in Sprague-Dawley rat assessed as inhibition of sodium absorption from intestinal lumen by measuring urinary sodium concentration at 3 mg/kg, po via gavage measured after 16 hrs relative to control; assay type: functional; parameters: scale not given: the % may be the effect or the level left
Rattus norvegicus [3] = test: In vivo inhibition of NHE3 in Sprague-Dawley rat assessed as inhibition of sodium absorption from intestinal lumen by measuring urinary sodium concentration at 1 mg/kg, po via gavage measured after 16 hrs relative to control; assay type: functional; parameters: scale not given: the % may be the effect or the level left
Homo sapiens = species: Homo sapiens; test: Selectivity ratio of IC50 for NHE3 (unknown origin) to IC50 for NHE1 (unknown origin)
Rattus norvegicus [4] = test: In vivo inhibition of NHE3 in rat assessed as inhibition of 33Pi uptake at 10 mg/kg, po measured up to 120 mins; assay type: functional, organism-based
Rattus norvegicus [5] = test: Decrease in calcium urinary excretion in dietary salt-induced partial renal ablation Sprague-Dawley rat model of chronic kidney disease at 0.1 to 3 mg/kg/day added to normal chow pellets; assay type: functional, organism-based
Rattus norvegicus [6] = test: Decrease in phosphorus urinary excretion in dietary salt-induced partial renal ablation Sprague-Dawley rat model of chronic kidney disease at 0.1 to 3 mg/kg/day added to normal chow pellets; assay type: functional, organism-based
[7] = Oral bioavailability in human; assay type: ADME, organism-based; conditions: in vivo
[8] = target: Sodium/hydrogen exchanger 1 (Rattus norvegicus, UniProt P26431); test: Inhibition of rat NHE1
[9] = target: T1, Sodium/hydrogen exchanger 5 (Homo sapiens, UniProt Q14940); test: Inhibition of NHE5 (unknown origin)
T1 sequence (Q14940 whole entry): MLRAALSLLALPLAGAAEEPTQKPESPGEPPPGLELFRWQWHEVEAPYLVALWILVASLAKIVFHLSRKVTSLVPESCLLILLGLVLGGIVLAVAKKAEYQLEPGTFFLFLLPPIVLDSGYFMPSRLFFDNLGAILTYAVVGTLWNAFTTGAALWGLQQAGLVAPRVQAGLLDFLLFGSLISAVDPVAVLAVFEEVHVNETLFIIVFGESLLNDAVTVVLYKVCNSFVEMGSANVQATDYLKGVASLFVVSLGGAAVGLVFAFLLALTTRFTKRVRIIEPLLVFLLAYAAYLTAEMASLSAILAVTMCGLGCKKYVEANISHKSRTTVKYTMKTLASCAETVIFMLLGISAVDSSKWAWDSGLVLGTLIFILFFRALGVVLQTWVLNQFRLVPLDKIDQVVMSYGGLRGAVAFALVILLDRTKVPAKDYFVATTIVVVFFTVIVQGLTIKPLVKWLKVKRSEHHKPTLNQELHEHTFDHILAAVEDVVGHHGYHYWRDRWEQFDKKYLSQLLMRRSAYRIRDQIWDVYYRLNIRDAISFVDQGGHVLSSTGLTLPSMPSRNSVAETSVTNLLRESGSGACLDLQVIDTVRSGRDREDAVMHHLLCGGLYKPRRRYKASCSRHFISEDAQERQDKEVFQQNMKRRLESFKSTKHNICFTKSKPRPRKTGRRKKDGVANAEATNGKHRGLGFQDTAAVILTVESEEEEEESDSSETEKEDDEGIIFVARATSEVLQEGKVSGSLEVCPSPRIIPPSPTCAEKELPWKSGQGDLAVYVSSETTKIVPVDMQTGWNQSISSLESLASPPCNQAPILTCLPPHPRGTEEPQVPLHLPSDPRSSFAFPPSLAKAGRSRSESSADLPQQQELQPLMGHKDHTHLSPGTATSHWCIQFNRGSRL

[10] = target: Sodium/hydrogen exchanger 3 (Rattus norvegicus, UniProt P26433); test: Inhibition of rat NHE3
[11] = target: T2, Sodium/hydrogen exchanger 2 (Oryctolagus cuniculus, UniProt P50482); test: Inhibition of rabbit NHE2
T2 sequence (P50482 whole entry): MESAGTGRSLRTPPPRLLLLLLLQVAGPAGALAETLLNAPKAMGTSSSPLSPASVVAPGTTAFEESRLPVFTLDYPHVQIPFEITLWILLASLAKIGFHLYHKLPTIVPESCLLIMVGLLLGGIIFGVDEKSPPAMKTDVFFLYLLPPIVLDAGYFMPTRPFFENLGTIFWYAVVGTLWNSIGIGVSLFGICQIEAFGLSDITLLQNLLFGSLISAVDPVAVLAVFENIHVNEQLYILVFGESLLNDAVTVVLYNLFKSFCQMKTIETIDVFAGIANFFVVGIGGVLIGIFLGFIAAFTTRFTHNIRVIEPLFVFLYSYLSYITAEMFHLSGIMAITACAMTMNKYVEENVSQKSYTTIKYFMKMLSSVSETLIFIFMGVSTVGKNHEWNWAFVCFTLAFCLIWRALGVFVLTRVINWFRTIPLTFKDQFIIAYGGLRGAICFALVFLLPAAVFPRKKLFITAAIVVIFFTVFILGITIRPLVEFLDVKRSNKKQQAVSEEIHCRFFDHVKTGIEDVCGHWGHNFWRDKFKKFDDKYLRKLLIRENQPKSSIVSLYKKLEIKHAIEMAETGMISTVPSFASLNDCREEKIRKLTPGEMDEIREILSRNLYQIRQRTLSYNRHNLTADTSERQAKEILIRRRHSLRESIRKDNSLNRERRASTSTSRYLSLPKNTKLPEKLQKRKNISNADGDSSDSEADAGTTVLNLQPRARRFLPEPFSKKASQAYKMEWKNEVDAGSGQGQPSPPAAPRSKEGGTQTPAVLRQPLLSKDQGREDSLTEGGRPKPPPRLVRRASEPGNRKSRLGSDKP

[12] = target: Sodium/hydrogen exchanger 1 (Oryctolagus cuniculus, UniProt P23791); test: Inhibition of rabbit NHE1
Chain of Sodium/hydrogen exchanger 1 (Oryctolagus cuniculus, UniProt P23791) (P23791 whole entry): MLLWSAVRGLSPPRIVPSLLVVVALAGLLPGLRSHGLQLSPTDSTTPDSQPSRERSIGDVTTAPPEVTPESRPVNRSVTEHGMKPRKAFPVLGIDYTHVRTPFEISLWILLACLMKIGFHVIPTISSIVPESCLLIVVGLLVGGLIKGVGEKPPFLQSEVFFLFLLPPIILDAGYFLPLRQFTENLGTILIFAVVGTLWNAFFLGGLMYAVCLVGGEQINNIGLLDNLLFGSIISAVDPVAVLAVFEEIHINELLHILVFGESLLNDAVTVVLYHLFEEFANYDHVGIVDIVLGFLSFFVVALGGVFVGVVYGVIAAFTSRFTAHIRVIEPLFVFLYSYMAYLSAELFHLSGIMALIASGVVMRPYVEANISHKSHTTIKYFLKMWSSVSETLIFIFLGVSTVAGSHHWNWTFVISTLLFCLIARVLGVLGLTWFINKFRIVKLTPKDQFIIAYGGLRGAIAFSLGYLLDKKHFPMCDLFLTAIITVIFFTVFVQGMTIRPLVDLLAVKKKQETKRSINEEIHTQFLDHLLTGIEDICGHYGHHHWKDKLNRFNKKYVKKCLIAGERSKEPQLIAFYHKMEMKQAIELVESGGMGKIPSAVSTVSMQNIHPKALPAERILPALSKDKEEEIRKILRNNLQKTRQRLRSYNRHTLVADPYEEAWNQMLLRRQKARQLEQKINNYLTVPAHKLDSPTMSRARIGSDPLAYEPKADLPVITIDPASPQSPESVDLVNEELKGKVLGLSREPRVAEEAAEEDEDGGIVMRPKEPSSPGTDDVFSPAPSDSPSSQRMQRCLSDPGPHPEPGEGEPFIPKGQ

Chain of Sodium/hydrogen exchanger 3 (P26433 whole entry): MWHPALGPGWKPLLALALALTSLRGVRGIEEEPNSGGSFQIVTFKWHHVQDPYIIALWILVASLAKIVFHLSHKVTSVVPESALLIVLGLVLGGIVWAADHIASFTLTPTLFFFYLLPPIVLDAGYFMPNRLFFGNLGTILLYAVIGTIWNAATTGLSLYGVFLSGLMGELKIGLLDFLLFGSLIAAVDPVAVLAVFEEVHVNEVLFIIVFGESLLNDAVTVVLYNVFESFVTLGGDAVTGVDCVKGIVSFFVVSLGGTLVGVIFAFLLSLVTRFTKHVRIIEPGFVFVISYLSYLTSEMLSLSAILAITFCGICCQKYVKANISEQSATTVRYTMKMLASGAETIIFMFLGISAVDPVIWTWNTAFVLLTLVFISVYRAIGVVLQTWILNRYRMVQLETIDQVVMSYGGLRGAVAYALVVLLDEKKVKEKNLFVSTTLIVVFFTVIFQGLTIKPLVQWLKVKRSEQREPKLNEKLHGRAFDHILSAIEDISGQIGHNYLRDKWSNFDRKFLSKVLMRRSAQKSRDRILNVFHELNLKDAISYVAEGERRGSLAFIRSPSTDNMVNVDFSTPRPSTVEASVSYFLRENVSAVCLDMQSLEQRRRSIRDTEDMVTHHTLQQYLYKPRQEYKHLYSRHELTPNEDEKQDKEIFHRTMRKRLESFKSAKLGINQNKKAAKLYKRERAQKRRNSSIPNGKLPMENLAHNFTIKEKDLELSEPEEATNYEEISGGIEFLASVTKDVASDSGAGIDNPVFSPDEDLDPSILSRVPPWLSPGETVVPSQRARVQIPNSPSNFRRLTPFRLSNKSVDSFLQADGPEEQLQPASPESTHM
Chain of Sodium/hydrogen exchanger 1 (Rattus norvegicus, UniProt P26431) (P26431 whole entry): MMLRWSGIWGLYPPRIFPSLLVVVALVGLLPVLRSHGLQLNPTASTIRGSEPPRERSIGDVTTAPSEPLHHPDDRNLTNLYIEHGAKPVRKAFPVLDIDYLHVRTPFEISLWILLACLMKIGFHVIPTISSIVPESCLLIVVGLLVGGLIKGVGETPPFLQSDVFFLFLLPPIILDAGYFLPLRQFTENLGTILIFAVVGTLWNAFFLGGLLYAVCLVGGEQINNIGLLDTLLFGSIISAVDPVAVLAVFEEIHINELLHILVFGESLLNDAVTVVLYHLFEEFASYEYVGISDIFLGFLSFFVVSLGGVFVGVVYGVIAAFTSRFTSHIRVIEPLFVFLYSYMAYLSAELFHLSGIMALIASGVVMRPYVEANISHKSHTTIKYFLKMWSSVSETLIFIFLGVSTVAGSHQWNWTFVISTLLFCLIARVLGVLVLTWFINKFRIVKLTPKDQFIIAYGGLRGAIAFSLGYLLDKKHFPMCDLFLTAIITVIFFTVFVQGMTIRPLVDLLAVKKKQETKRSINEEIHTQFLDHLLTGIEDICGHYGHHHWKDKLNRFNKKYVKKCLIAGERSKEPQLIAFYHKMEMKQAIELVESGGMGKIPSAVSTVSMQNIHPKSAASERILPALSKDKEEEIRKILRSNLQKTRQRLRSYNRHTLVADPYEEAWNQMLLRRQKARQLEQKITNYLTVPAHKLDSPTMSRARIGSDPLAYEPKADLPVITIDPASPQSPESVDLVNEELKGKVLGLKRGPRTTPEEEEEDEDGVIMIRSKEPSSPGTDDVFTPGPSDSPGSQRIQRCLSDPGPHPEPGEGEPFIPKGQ

CN1Cc2c(Cl)cc(Cl)cc2[C@H](c2cccc(S(=O)(=O)NCCOCCOCCNC(=O)CN3CCN(CC(=O)NCCOCCOCCOCCNS(=O)(=O)c4cccc([C@@H]5CN(C)Cc6c(Cl)cc(Cl)cc65)c4)CCN(CC(=O)NCCOCCOCCOCCNS(=O)(=O)c4cccc([C@@H]5CNCc6c(Cl)cc(Cl)cc65)c4)CCN(CC(=O)NCCOCCOCCOCCNS(=O)(=O)c4cccc([C@@H]5CN(C)Cc6c(Cl)cc(Cl)cc65)c4)CC3)c2)C1
Activity (Rattus norvegicus [1]): 82%

CN1Cc2c(Cl)cc(Cl)cc2[C@H](c2cccc(S(=O)(=O)NCCOCCNC(=O)CCC(CCC(=O)NCCOCCOCCNS(=O)(=O)c3cccc([C@@H]4CN(C)Cc5c(Cl)cc(Cl)cc54)c3)(CCC(=O)NCCOCCOCCNS(=O)(=O)c3cccc([C@@H]4CN(C)Cc5c(Cl)cc(Cl)cc54)c3)NC(=O)[C@H]3CCCC[C@@H]3C(=O)O)c2)C1
Activity (Rattus norvegicus [2]): 63%

O=C(NCCCCNC(=O)NCCOCCOCCNS(=O)(=O)c1ccc(O[C@H]2c3cc(Cl)cc(Cl)c3C[C@@H]2N2CC[C@@H](O)C2)cc1)NCCOCCOCCNS(=O)(=O)c1ccc(O[C@H]2c3cc(Cl)cc(F)c3C[C@@H]2N2CC[C@@H](O)C2)cc1
Activity (Rattus norvegicus [1]): 104%

CN1Cc2c(Cl)cc(Cl)cc2[C@@H](c2ccc(S(=O)(=O)NCCOCCOCCNC(=O)NCCCCNC(=O)NCCOCCOCCNS(=O)(=O)c3cccc([C@@H]4CN(C)Cc5c(Cl)cc(Cl)cc54)c3)cc2)C1.Cl.Cl
Activity (Rattus norvegicus [1]): 68%

CN1Cc2c(Cl)cc(Cl)cc2[C@H](c2cccc(S(=O)(=O)NCCOCCOCCNC(=O)CCC(CCC(=O)NCCOCCOCCNS(=O)(=O)c3cccc([C@@H]4CN(C)Cc5c(Cl)cc(Cl)cc54)c3)(CC(=O)NCCOCCOCCNS(=O)(=O)c3cccc([C@@H]4CN(C)Cc5c(Cl)cc(Cl)cc54)c3)NC(=O)CCC(=O)O)c2)C1
Activity (Rattus norvegicus [2]): 12% | Activity (Rattus norvegicus [3]): 49%

CN1Cc2c(Cl)cc(Cl)cc2[C@H](c2ccc(S(=O)(=O)N(C)CCOCCOCCNC(=O)CCN(CCC(=O)NCCOCCOCCN(C)S(=O)(=O)c3cccc([C@@H]4CN(C)Cc5c(Cl)cc(Cl)cc54)c3)CCC(=O)NCCOCCOCCN(C)S(=O)(=O)c3cccc([C@@H]4CN(C)Cc5c(Cl)cc(Cl)cc54)c3)cc2)C1
Activity (Rattus norvegicus [2]): 64%

CN1Cc2c(Cl)cc(Cl)cc2[C@H](c2ccc(S(=O)(=O)NCCOCCOCCNC(=O)NCCCCNC(=O)NCCOCCOCCNS(=O)(=O)c3cccc([C@@H]4CN(C)Cc5c(Cl)cc(Cl)cc54)c3)cc2)C1.Cl.Cl
Activity (Rattus norvegicus [1]): 90%

CN1Cc2c(Cl)cc(Cl)cc2[C@H](c2cccc(S(=O)(=O)NCCOCCOCCNC(=O)NCCN(CCNC(=O)NCCOCCOCCNS(=O)(=O)c3cccc([C@@H]4CN(C)Cc5c(Cl)cc(Cl)cc54)c3)C(=O)CCCOCCOCCOCCOCCC(=O)N(CCNC(=O)NCCOCCOCCNS(=O)(=O)c3cccc([C@@H]4CN(C)Cc5c(Cl)cc(Cl)cc54)c3)CCNC(=O)NCCOCCOCCNS(=O)(=O)c3cccc([C@@H]4CN(C)Cc5c(Cl)cc(Cl)cc54)c3)c2)C1
Activity (Rattus norvegicus [1]): 47%

CCCCCCCCOCCOCCOCCOCCCOCCOC(=O)NCCOCCOCCOCCNS(=O)(=O)c1cccc([C@@H]2CN(C)Cc3c(Cl)cc(Cl)cc32)c1
Activity (Rattus norvegicus [1]): 86%

CN1Cc2c(Cl)cc(Cl)cc2[C@@H](c2cccc(S(=O)(=O)NCCOCCOCCNC(=O)N(C)CCCN(CCCN(C)C(=O)NCCOCCOCCNS(=O)(=O)c3cccc([C@@H]4CN(C)Cc5c(Cl)cc(Cl)cc54)c3)C(=O)NCCOCCOCCNS(=O)(=O)c3cccc([C@@H]4CN(C)Cc5c(Cl)cc(Cl)cc54)c3)c2)C1
Activity (Rattus norvegicus [2]): 55% | Activity (Rattus norvegicus [1]): 28% | Activity (Rattus norvegicus [3]): 88%

CN1Cc2c(Cl)cc(Cl)cc2[C@H](c2ccc(S(=O)(=O)NCCOCCOCCNCCCC(CCC(=O)NCCOCCOCCNS(=O)(=O)c3cccc([C@@H]4CN(C)Cc5c(Cl)cc(Cl)cc54)c3)(CCC(=O)NCCOCCOCCNS(=O)(=O)c3cccc([C@@H]4CN(C)Cc5c(Cl)cc(Cl)cc54)c3)NC(=O)N3CCN(CCOCCO)CC3)cc2)C1
Activity (Rattus norvegicus [2]): 31%

CC(=O)C(CCNC(=O)NCCOCCOCCNS(=O)(=O)c1cccc([C@@H]2CN(C)Cc3c(Cl)cc(Cl)cc32)c1)(CCNC(=O)NCCOCCOCCNS(=O)(=O)c1cccc([C@@H]2CN(C)Cc3c(Cl)cc(Cl)cc32)c1)CCNC(=O)NCCOCCOCCNS(=O)(=O)c1cccc([C@@H]2CN(C)Cc3c(Cl)cc(Cl)cc32)c1
Activity (Rattus norvegicus [2]): 42%

C/C(=C\c1cccc(/C=C(\C)C(=O)NC(=N)N)c1)C(=O)N=C(N)N
Ratio IC50 (Homo sapiens): > 500

CN1Cc2c(Cl)cc(Cl)cc2[C@@H](c2cccc(S(=O)(=O)NCCOCCOCCNC(=O)NCCCCNC(=O)NCCOCCOCCNS(=O)(=O)c3cccc([C@@H]4CN(C)Cc5c(Cl)cc(Cl)cc54)c3)c2)C1
inhibition (Rattus norvegicus [4]): inactive

CN1Cc2c(Cl)cc(Cl)cc2[C@H](c2cccc(S(=O)(=O)NCCOCCOCCNC(=O)NCCCCNC(=O)NCCOCCOCCNS(=O)(=O)c3cccc([C@@H]4CN(C)Cc5c(Cl)cc(Cl)cc54)c3)c2)C1
Activity (Rattus norvegicus [5]): Active | Activity (Rattus norvegicus [6]): Active

OC[C@H]1O[C@@H](O[C@@H]2[C@@H](CO)O[C@](O)(CO)[C@H]2O)[C@H](O)[C@@H](O)[C@H]1O (mixture of isomers) [LACTULOSE]
bioavailability [7]: 0.6%

CCN(c1nc(N)c(C(=O)NC(=N)N)nc1Cl)C(C)C [5-(N-ETHYL-N-ISOPROPYL)AMILORIDE]
IC50 [8]: 10 nM | IC50 [9]: 420 nM | IC50 [10]: 2400 nM | IC50 [11]: 500 nM | IC50 [12]: 20 nM

C=CCc1ccccc1OCC(O)CNC(C)C (configuration not stated) [ALPRENOLOL]
bioavailability [7]: 96%

N=C(N)NC(=O)c1nc(Cl)c(N)nc1N [AMILORIDE]
IC50 [8]: 1000 to 1600 nM | IC50 [9]: 21000 nM | IC50 [10]: > 100000 nM | IC50 [11]: 1000 nM

Cc1cc(=O)n(-c2ccccc2)n1C [ANTIPYRINE]
bioavailability [7]: 97%

O=C(O)P(=O)(O)O [FOSCARNET]
bioavailability [7]: 17%

OC[C@@H](O)[C@@H](O)[C@H](O)[C@H](O)CO [MANNITOL]
bioavailability [7]: 26%

Cc1ccccc1N1C(=O)c2cc(S(N)(=O)=O)c(Cl)cc2NC1C (configuration not stated) [METOLAZONE]
bioavailability [7]: 64%

O=C(O)c1cc(/N=N/c2ccc(O)c(C(=O)O)c2)ccc1O [OLSALAZINE]
bioavailability [7]: 2.3%

C=CCOc1ccccc1OCC(O)CNC(C)C (configuration not stated) [OXPRENOLOL]
bioavailability [7]: 97%

CC(C)NCC(O)COc1cccc2[nH]ccc12 (configuration not stated) [PINDOLOL]
bioavailability [7]: 92%

CC(=O)Nc1ccc(OCC(O)CNC(C)C)cc1 (configuration not stated) [PRACTOLOL]
bioavailability [7]: 95%

OC[C@H]1O[C@H](OC[C@H]2O[C@H](O[C@]3(CO)O[C@H](CO)[C@@H](O)[C@@H]3O)[C@H](O)[C@@H](O)[C@@H]2O)[C@H](O)[C@@H](O)[C@H]1O [RAFFINOSE]
bioavailability [7]: 0.3%

O=C(O)c1cc(/N=N/c2ccc(S(=O)(=O)Nc3ccccn3)cc2)ccc1O [SULFASALAZINE]
bioavailability [7]: 12%

CCN1CCCC1CNC(=O)c1cc(S(N)(=O)=O)ccc1OC (configuration not stated) [SULPIRIDE]
bioavailability [7]: 36%

NC[C@H]1CC[C@H](C(=O)O)CC1 [TRANEXAMIC ACID]
bioavailability [7]: 55%
